One test concerns Male wistar rats. Nature of the test: Carbon tetrachloride induced hepatotoxicity in rats (serum AST and ALT). Type of test: in vivo, rat. As to conditions: for Protection against CCl4 induced toxicity: orally, rats. On the procedure: Carbon tetrachloride is a classical method to induce free radical mediated hepatotoxicity. In order to evaluate the free radical mediated hepatotoxicity and heptoprotective properties in the compound (−)-wikstromol, this method was employed. Male wistar rats were selected for study. The compound was dissolved in a small amount of DMSO and reconstituted in gum acacia/water. The compound was given one hour before CCl4 administration to the over-night fasted rats in a dose of 250 mg/kg-body weight, orally. After one hour, a mixture of CCl4 and liquid paraffin (1:1, v/v) in the dose of 2.5 ml/kg was given orally. Fasting was continued. However, water was provided ad-libitum. After 5 hrs of CCl4 administration, blood was taken out from the retroorbital plexus. Serum aspartase transaminase and serum alanine transaminase was measured as a marker of hepatotoxicity.
Carbon tetrachloride induced toxicity was repeated as referred in the example 2 by changing the dosage level to 300 mg/kg-body weight, orally. Fasting was continued. However, water was provided ad-libitum. After 5hrs of CCl4 administration, blood was taken out from the retroorbital plexus. Serum aspartase transaminase and serum alanine transaminase was measured as a marker of hepatotoxicity.

Test [1] relates to p-388 lymphocyte leukemia. The settings on record: cited from earlier work.
The next test deals with HIV. The settings on record: cited from earlier work.
Where [2] appears, read: serum, 5 hours after CCl4 administration, compound 250 mg/kg orally one hour before CCl4 2.5 ml/kg, mean ± SD.

With `COc1cc(C[C@@H]2COC(=O)[C@@]2(O)Cc2ccc(O)c(OC)c2)ccc1O` [(−)-wikstromol, 4,4^1,8-trihydroxy-3,3^1-dimethoxyliganan-9,9^1-olide], the “Protection against CCl4 induced toxicity” value in the test on Male wistar rats (250 mg/kg-body weight) is reported as “significantly prevented CCl4 induced toxicity”. The “Protection against CCl4 induced toxicity” value with Male wistar rats (300 mg/kg-body weight) is “shows significant activity and prevented CCl4 induced toxicity”. Besides, the Hepatoprotective effectiveness result in the test on Male wistar rats (dosage of 250 to 300 mg/kg of body weight) is on record as “highly effective”. In the test on Male wistar rats (serum alanine transaminase before oral administration of compound and CCl4, mean ± SD, 250 mg/kg group), the “ALT (U/L) Before” value worked out at 42 ± 7 U/L. Besides, the “AST (U/L) Before” value in the test on Male wistar rats (serum aspartate transaminase before oral administration of compound and CCl4, mean ± SD, 250 mg/kg group) was 281 ± 91 U/L. In the test with Male wistar rats (setting [2]), the “ALT (U/L) After” value stood at 188 ± 66 U/L and the “AST (U/L) After” value was 557 ± 126 U/L. For the same molecule, in test [1], the “Activity against p-388 lymphocyte leukemia” value is “active”. Also, in the test with HIV, the Anti-HIV activity result is recorded as “anti-HIV activity”.

The values are drawn from patent publication US6537593B2, “Plant phenol as new hepatoprotective agents” (Council of Scientific and Industrial Research, priority 2000, dated 2003).
